Reference: patent US20100210559A1, “TRAP-14 AS A THERAPEUTIC AGENT” (priority 2007, published 2010)
No end group written: not given here.

What was measured:
HIV-1IIIB = assay: HIV-1 antiviral assay (CPE reduction, MTS); format: cell-based; settings: peptide 10 micrograms per ml, 6 days post-infection
[1] = Cytotoxicity in CEM-SS cells (MTS cell viability); settings: human
[2] = Cytotoxicity in MRC-5 cells (CellTiter 96); settings: human
MRSA = settings: 5 micrograms per ml
Pseudomonas aeruginosa = format: cell-based; settings: 5 micrograms per ml
in vitro = settings: human, HepG2-2.2.15 cells
Procedure: HepG2-2.2.15 cells were plated in 96-well microtiter plates. After 16-24 hours the confluent monolayer of HepG2-2.2.15 cells was washed and the medium was replaced with complete medium containing test peptide—10 micrograms per ml—in duplicate. […] Three days later the culture medium was replaced with fresh medium containing the peptide. […] A novel dye uptake assay was then employed to measure cell viability, which is used to calculate toxicity (% cell control).

Streptococcus pneumoniae = format: cell-based; settings: 5 micrograms per ml

| Compound | % CPE reduction in HIV-1 infected CEM-SS cells (HIV-1IIIB) [%] | viability at 10 micrograms per ml [1] [%] | viability at 144 h [2] [%] | % inhibition (MRSA) [%] | % inhibition (Pseudomonas aeruginosa) [%] | viability at 144 h, 10 micrograms per ml (in vitro) [%] | % inhibition (Streptococcus pneumoniae) [%] |
| --- | --- | --- | --- | --- | --- | --- | --- |
| Cc1cn([C@H]2C[C@H](N=[N+]=[N-])[C@@H](CO)O2)c(=O)[nH]c1=O [AZT] | 99 | – | – | – | – | – | – |
| SFLLRNPNDKYEPF-OH [TRAP-14] | – | 100 | 100 | 0.0 | 0.0 | 84.5 | 0.0 |
